Laboratory results as given in ChEMBL document CHEMBL1201862, “PubChem BioAssay data set” (2004).
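In this assay, cells in 96-well plates receive the compound at five concentrations for 48 hours. Endpoints are linearly interpolated between the surrounding concentrations. GI50 marks 50% less growth.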 Calls of active or inactive are those of the source. No stated cut-off is given here; in the data, active = GI50 up to about 1.1 µM and inactive = higher.

Experiments:
Test in all cases: NCI-60 cell line screen, 48 h
[1] = tested on: HCC 2998
[2] = tested on: Malme-3M
[3] = tested on: OVCAR-8
[4] = tested on: SK-MEL-5
[5] = tested on: SF-268
[6] = tested on: UACC-257
[7] = tested on: HOP-62
[8] = tested on: DU-145
[9] = tested on: SW-620
[10] = tested on: HL-60
[11] = tested on: BT-549
[12] = tested on: SF-539
[13] = tested on: TK-10
[14] = tested on: NCI-H460
[15] = tested on: IGROV-1
[16] = tested on: SK-OV-3
[17] = tested on: OVCAR-3
[18] = tested on: RXF 393
[19] = tested on: UO-31
[20] = tested on: T47D
[21] = tested on: MDA-N
[22] = tested on: MCF7
[23] = tested on: HCT-116
[24] = tested on: RPMI-8226
[25] = tested on: SN12C
[26] = tested on: CAKI-1
[27] = tested on: HCT-15
[28] = tested on: A549
[29] = tested on: U-251
[30] = tested on: COLO 205
[31] = tested on: NCI-H226
[32] = tested on: SR
[33] = tested on: MOLT-4
[34] = tested on: ACHN
[35] = tested on: SK-MEL-2
[36] = tested on: SF-295
[37] = tested on: HT-29
[38] = tested on: SK-MEL-28
[39] = tested on: MDA-MB-435
[40] = tested on: UACC-62
[41] = tested on: Hs-578T
[42] = tested on: OVCAR-5
[43] = tested on: CCRF-CEM
[44] = tested on: OVCAR-4
[45] = tested on: PC-3
[46] = tested on: LOX IMVI
[47] = tested on: K562
[48] = tested on: NCI/ADR-RES
[49] = tested on: 786-0
[50] = tested on: KM12
[51] = tested on: EKVX
[52] = tested on: M14
[53] = tested on: NCI-H23
[54] = tested on: SNB-75
[55] = tested on: SNB-19
[56] = tested on: MDA-MB-231
[57] = tested on: HOP-92
[58] = tested on: NCI-H522

`CCCCC(=C=C(C)CO)C1CCCN1C(=O)OC(C)(C)C` (stereo not drawn) was tested, and the GI50 [1] was 8.02 µM (inactive), the GI50 [2] was 15 µM (inactive) and the GI50 [3] was 18.2 µM (inactive). For the same molecule, the GI50 [4] was 16.1 µM (inactive), the GI50 [5] was 17.5 µM (inactive) and the GI50 [6] was 16 µM (inactive). The GI50 [7] was 20 µM (inactive), the GI50 [8] was 18.1 µM (inactive) and the GI50 [9] was 29.2 µM (inactive). The GI50 [10] was 13.4 µM (inactive), the GI50 [11] was 16.1 µM (inactive) and the GI50 [12] was 16.9 µM (inactive). The GI50 [13] was 19.4 µM (inactive), the GI50 [14] was 16.1 µM (inactive) and the GI50 [15] was 17.9 µM (inactive). The GI50 [16] was 24.5 µM (inactive), the GI50 [17] was 17.5 µM (inactive) and the GI50 [18] was 15.2 µM (inactive). For the same molecule, the GI50 [19] was 22.9 µM (inactive), the GI50 [20] was 22.5 µM (inactive) and the GI50 [21] was 17.6 µM (inactive). The GI50 [22] was 20.4 µM (inactive), the GI50 [23] was 15.6 µM (inactive) and the GI50 [24] was 13.9 µM (inactive). The GI50 [25] was 17.3 µM (inactive), the GI50 [26] was 21.8 µM (inactive) and the GI50 [27] was 17.9 µM. For the same molecule, the GI50 [28] was 19 µM (inactive), the GI50 [29] was 17.1 µM (inactive) and the GI50 [30] was 15.4 µM (inactive). For the same molecule, the GI50 [31] was 16 µM (inactive), the GI50 [32] was 15.1 µM (inactive) and the GI50 [33] was 12.3 µM (inactive). The GI50 [34] was 24.8 µM (inactive), the GI50 [35] was 16.5 µM (inactive) and the GI50 [36] was 16.3 µM (inactive). For the same molecule, the GI50 [37] was 17.5 µM (inactive), the GI50 [38] was 18.4 µM (inactive) and the GI50 [39] was 18.8 µM (inactive). For the same molecule, the GI50 [40] was 13.6 µM (inactive), the GI50 [41] was 13.8 µM (inactive) and the GI50 [42] was 21 µM (inactive). For the same molecule, the GI50 [43] was 14.3 µM (inactive), the GI50 [44] was 17.3 µM (inactive) and the GI50 [45] was 18.5 µM (inactive). The GI50 [46] was 16.8 µM (inactive), the GI50 [47] was 17.9 µM (inactive) and the GI50 [48] was 16.8 µM (inactive). The GI50 [49] was 16.4 µM (inactive), the GI50 [50] was 18.4 µM (inactive) and the GI50 [51] was 19.7 µM (inactive). For the same molecule, the GI50 [52] was 18.5 µM (inactive), the GI50 [53] was 19 µM (inactive) and the GI50 [54] was 22.5 µM (inactive). The GI50 [55] was 23.3 µM (inactive), the GI50 [56] was 17 µM (inactive) and the GI50 [57] was 12.7 µM (inactive). For the same molecule, the GI50 [58] was 14.5 µM (inactive).
